Key:
[1] = tested on: red cells of subjects suffering from drepanocytosis; assay: Inhibition of sickling of human red blood corpuscules of subjects suffering from drepanocytosis; assay type: cell-based; settings: pH 7.40, one hour at 37° C.
Procedure: Inhibition of the sickling of human red blood corpuscules was assessed by washing and incubating, in a saline buffer (pH: 7.40; 0.15M) for one hour at 37° C., the red cells of subjects suffering from drepanocytosis. This operation was carried out in a water-bath under stirring and in the presence of a compound of the invention used at different concentrations. The molar ratios between the compound of the invention and the haemoglobin were initially tested at intervals ranging from 0.5 to 20, the mM concentration in haemoglobin being 0.5 in each case and the ratio being modified according to the results obtained.
At the end of incubation, the excess of the product being tested was removed by washing and the cellular suspension adjusted so as to form a haematocrit of 5% was transferred to an Erlenmeyer flask and incubated at 37° C. under a current comprising a humidified mixture of nitrogen and oxygen the oxygen concentration being regulated by a gas-mixing pump. The effluent gas was then transferred to another tube containing formaldehyde and, at the end of incubation, the cellular suspension was transferred to the formaldehyde by merely turning the flask upside down.
The proportion of deformed cells and those having the characteristics of drepanocytes (having two filiform extensions) was assessed with the aid of a microscope having a NORMARSKY interferential optical system. Inhibition of sickling was calculated according to the following formula: [formula]
The following results were obtained with representative compounds of the present invention in comparison with cystamine.

sickling = settings: literature: Inserm Symposium 1979; in words; cited from earlier work

| SMILES | % inhibition of sickling of the red blood corpuscles ([1]; 0.5 mmolar) [%] | % inhibition of sickling of the red blood corpuscles ([1]; 1 mmolar) [%] | % inhibition of sickling of the red blood corpuscles ([1]; 5 mmolar) [%] | inhibiting sickling (sickling) |
| --- | --- | --- | --- | --- |
| Cc1ccc(S(=O)(=O)Sc2ncc[nH]2)cc1 [1H-imidazol-2-yl p-toluenethiosulfonate] | 50 | 100 | – | – |
| Cc1ccc(S(=O)(=O)Sc2nnc(N)s2)cc1 [5-amino-1,3,4-thiadiazol-2-yl p-toluenethiosulfonate] | – | 33 | – | – |
| NCCSSCCN [Cystamine, cystamine, reference compound] | – | – | 33 | particularly active |
